For experiment [1], the system named is P. aeruginosa (PA01) tagged with GFP biofilm. The experiment is described as follows: flow-chamber biofilm, confocal laser scanning microscopy. The format is cell-based, Pseudomonas aeruginosa. The procedure:
Biofilms were grown at 37° C. in continuous-culture, once-through, three-channel, flow-chambers (individual channel dimensions of 1×4×40 mm) perfused with sterile AB trace minimal medium (Pamp and Tolker-Nielsen, 2007), supplemented with 0.3 mM glucose and 0.025% (v/v) DMSO. P. aeruginosa (PA01) tagged with GFP at a neutral chromosomal locus was used for the experiments. After a static attachment phase of 1 h, the flow of medium was turned on and the biofilms were allowed to establish for 48 h in the absence (untreated) or presence (treated) of medium supplemented with 25 μM of H6-335-P1. Confocal laser scanning microscopy was used to image the biofilms after 24 h and 48 h (FIG. 5A).
Confocal laser scanning microscopy was used to image the biofilm immediately before H6-335-P1 was added, and after 4 h of H6-335-P1 treatment. Simulated fluorescence projections in 3D were generated from the image stacks using the IMARIS software package (Bitplane, Oxford Imaging, UK) and the resulting images were processed for publication using Photoshop (Adobe, USA).

Experiment [2] relates to P. aeruginosa wspF mutant. The experiment is described as follows: Congo Red agar plate colony phenotype. Particulars: CR plates supplemented with 100 μM; dark red without compound. It is filed as cell-based, Pseudomonas aeruginosa. From the text: The inventors employed mutational analysis with the aim of identifying a putative target of H6-335-P1. The compound Congo Red (CR) binds to exopolymers whose production is positively regulated by c-di-GMP in P. aeruginosa (Friedman, L., and R. Kolter. 2003.
Genes involved in matrix formation in Pseudomonas aeruginosa PA14 biofilms. Molecular Microbiology 51:675-690).

The subject of experiment [3] is Stenotrophomonas maltophilia. The experiment is described as follows: biofilm formation / dispersal, host range. It is filed as cell-based. Particulars: data not shown. From the text:
(§1) To determine the host range of H6-335-P1, the inventors conducted a Blast search for analogs of the P. aeruginosa BifA phosphodiesterase protein encoded by gene PA4367 (bifA).

The test system of another experiment is Enterobacter cloacae. In words: biofilm formation / dispersal, host range. The format is cell-based. Particulars: data not shown.
From the text: as §1

Another experiment deals with Acinetobacter baumanii. The experiment is described as follows: biofilm formation / dispersal, host range. The format is cell-based. The conditions noted are these: data not shown.
From the text: as §1

A further experiment deals with Burkholderia cenocepacia. In words: biofilm formation / dispersal, host range. The format is cell-based. Particulars: data not shown.
From the text: as §1

For another experiment, the system named is wt P. aeruginosa biofilm. In words: time dependent liberation of bacteria from biofilm (CFU). It is filed as cell-based, Pseudomonas aeruginosa. Particulars: 25 μM, 18 hours old biofilm, FIG. 4C. Here is the method: In a further experiment (FIG. 4C) the time dependent liberation of wt P. aeruginosa bacteria during H6-335-P1 induced dispersal performed in 48 well trays microtiter trays was determined. After 18 hours of growth in ABtrace media aliquots supplemented with 0.5% glucose, 0.5% Cas amino acids and 1 μM FeCl3 on a rotary shaker, 25 μM H6-335-P1 or 1% DMSO control was added. At the time-points indicated, samples were withdrawn and plated for CFU determinations. Average CFU's per ml for the 1% DMSO controls at each time point are set to 100.

The test system of another experiment is Staphylococcus aureus. In words: biofilm formation / dispersal, host range. The format is cell-based. Particulars: data not shown.
Another experiment has as its system Klebsiella pneumoniea. The experiment is described as follows: biofilm formation / dispersal, host range. The format is cell-based. Particulars: data not shown.
The subject of the next experiment is Pseudomonas flourescens. The experiment is described as follows: biofilm formation, crystal violet, host range. The format is cell-based. The conditions noted are these: 100 μM, 8 hours, FIG. 11. The procedure:
as §1
(§2) Briefly, the experiment presented in FIG. 11 were carried out in 96 well microtiter plates as follows. 20 hours old cultures of either P. aeruginosa, P. putida or P. flourescens were diluted 1000 fold into 100 μL aliquots of ABtrace media supplemented with 0.5% Cas amino acids, 0.2% glucose, 1 μM FeCl3, 0.2% DMSO and either 100 μM H6-335-P1 or none H6-335-P1. The resulting microtiter plate were sealed with an air permeable lid and the cultures were incubated at 37° C. on rotary shaker at 160 RPM. Following 8 hours of growth the culture supernatants were discarded and the amount of biofilm present in each well were quantified by the use of crystal violet staining. Finally, the obtained values of crystal violet (biofilm material) were plotted as a function of strain and the presence of 100 μM H6-335-P1 or absence of H6-335-P1. In FIG. 11 means and standard deviations (bars) represents 4 biological replicates (n=4).

In another experiment the test system is Pseudomonas putida. The experiment is described as follows: biofilm formation, crystal violet, host range. Particulars: 100 μM, 8 hours, FIG. 11. The format is cell-based. The procedure: as §1, §2
Experiment [4] concerns P. aeruginosa mPA01 wt and PDE mutants incl. PA4367 (bifA). The experiment is described as follows: dispersal of biofilms of PDE transposon mutants, crystal violet. It is filed as cell-based, Pseudomonas aeruginosa. The conditions noted are these: 18 hours old biofilm, two hours of treatment, FIG. 6A. The procedure:
The inventors obtained mutants of all P. aeruginosa PDEs from the Washington P. aeruginosa mPAO1 transposon mutant library and investigated the ability of H6-335-P1 to disperse biofilms formed by each of these mutants in microtiter trays. […]
The resulting cultures were incubated at 37° C. on a rotary shaker (160 RPM) and biofilms were grown for 18 hours, at which time point either 2 μL of a 5 mM H6-335-P1 in 50% DMSO (+) or 2 μL of 50% DMSO (−) were added to each well. After two subsequent hours of growth, the culture supernatants were discarded and the amounts of biofilm present in the wells were quantified by crystal violet (CV) staining (Groizeleau et al., 2016).
The amounts of biofilm prevailing after two hours of treatments were determined for the wt strain mPA01 and each of the PDE mutants. […]

This note sets out measurements from US20230321043A1, “COMPOUNDS HAVING PSEUDOMONAS ANTI-BIOFILM PROPERTIES” (Københavns Universitet, priority 2020, published 2023).

With `N=C1NN=C(N)/C1=N/Nc1ccccc1F` [H6-335-P1, 4-[(2-fluorophenyl) hydrazinylidene]pyrazole-3,5-diamine], the “prevention of biofilm formation in flow-through cells” value in [1] (25 μM in the growth medium, 48 h, FIG. 5A) is “significantly prevented biofilm formation”. Further, in [1] (25 μM, 48 h old biofilm, after four hours of exposure, FIG. 5B), the “biofilm biomass left behind” value is 10%. In addition, the “colony colour on Congo Red plates” value in experiment [2] is given as “white colonies”. The “biofilm formation of Stenotrophomonas maltophilia” value in experiment [3] was “failed to reduce biofilm formation”. For the same molecule, the “biofilm formation of Enterobacter cloacae” value with Enterobacter cloacae was “failed to reduce biofilm formation”. In the experiment with Acinetobacter baumanii, the “biofilm formation of Acinetobacter baumanii” value was “failed to reduce biofilm formation”. For the same molecule, the “biofilm formation of Burkholderia cenocepacia” value in the experiment with Burkholderia cenocepacia is recorded as “failed to reduce biofilm formation”. The “dispersal of live bacteria from already formed biofilms” value with wt P. aeruginosa biofilm is on record as “induced dispersal of live bacteria into the growth medium”. In addition, the “biofilm formation of Staphylococcus aureus” value in the experiment on Staphylococcus aureus is recorded as “failed to reduce biofilm formation”. In addition, in the experiment on Klebsiella pneumoniea, the “biofilm formation of Klebsiella pneumoniea” value is reported as “failed to reduce biofilm formation”. Besides, the “biofilm formation of Pseudomonas flourescens” value with Pseudomonas flourescens is given as “significantly less biofilm”. In addition, the “biofilm formation of Pseudomonas putida” value in the experiment with Pseudomonas putida is given as “significantly less biofilm”. Besides, in experiment [4], the “induced dispersal of biofilm of the bifA mutant (PA4367)” value was “did not respond to H6-335-P1 induced dispersal”; the “induced dispersal of biofilms of P. aeruginosa wt and all the remaining PDE mutants” value is given as “dispersed in response to H6-335-P1 exposure”.
